According to publication PMC12668310, “High‐Throughput Synthesis and Screening of a Cyanimide Library Identifies Selective Inhibitors of ISG15‐Specific Protease mUSP18” (Angewandte Chemie (International Ed. in English), 2025):

Legend:
USP32 = target: T1, USP32 (Homo sapiens, UniProt Q8NFA0); assay: IC50 determination, fluorogenic Ub-Rho-morpholine activity assay; assay type: biochemical; conditions: after 30 min incubation; purified compound
T1 construct: (1-1604); His-tag (N); made in house

UCHL3 = target: T2, UCHL3 (Homo sapiens, UniProt P15374); assay: as above; assay type: biochemical; conditions: after 30 min incubation; purified compound
T2 construct: (1-230); made in house
T2 sequence (P15374 1-230): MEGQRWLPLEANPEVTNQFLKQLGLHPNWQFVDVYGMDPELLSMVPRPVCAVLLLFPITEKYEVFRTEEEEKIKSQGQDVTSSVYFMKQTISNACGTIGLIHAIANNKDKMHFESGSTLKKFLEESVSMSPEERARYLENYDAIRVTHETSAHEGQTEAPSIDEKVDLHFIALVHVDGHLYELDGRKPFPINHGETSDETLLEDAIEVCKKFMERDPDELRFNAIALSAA

mUSP18 = target: T3, mUSP18 (Mus musculus, UniProt Q9WTV6); assay: IC50 determination, fluorogenic ISG15CT-Rho-morpholine activity assay; assay type: biochemical, murine; conditions: after 30 min incubation; purified compound; ISG15CT-Rho-morpholine substrate
T3 construct: (46-368); His-tag (N); made in house
T3 sequence (Q9WTV6 46-368): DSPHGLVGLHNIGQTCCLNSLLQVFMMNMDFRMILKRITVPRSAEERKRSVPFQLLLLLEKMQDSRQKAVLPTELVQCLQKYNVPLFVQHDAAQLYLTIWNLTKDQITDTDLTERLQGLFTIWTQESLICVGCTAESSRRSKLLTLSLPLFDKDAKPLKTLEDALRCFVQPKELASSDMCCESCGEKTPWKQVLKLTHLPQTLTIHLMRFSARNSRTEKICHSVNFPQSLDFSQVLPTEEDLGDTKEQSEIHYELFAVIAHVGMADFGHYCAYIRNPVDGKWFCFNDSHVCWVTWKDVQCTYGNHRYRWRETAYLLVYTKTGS

USP30 = target: T4, USP30 (Homo sapiens, UniProt Q70CQ3); assay: biochemical
T4 sequence (Q70CQ3 57-517): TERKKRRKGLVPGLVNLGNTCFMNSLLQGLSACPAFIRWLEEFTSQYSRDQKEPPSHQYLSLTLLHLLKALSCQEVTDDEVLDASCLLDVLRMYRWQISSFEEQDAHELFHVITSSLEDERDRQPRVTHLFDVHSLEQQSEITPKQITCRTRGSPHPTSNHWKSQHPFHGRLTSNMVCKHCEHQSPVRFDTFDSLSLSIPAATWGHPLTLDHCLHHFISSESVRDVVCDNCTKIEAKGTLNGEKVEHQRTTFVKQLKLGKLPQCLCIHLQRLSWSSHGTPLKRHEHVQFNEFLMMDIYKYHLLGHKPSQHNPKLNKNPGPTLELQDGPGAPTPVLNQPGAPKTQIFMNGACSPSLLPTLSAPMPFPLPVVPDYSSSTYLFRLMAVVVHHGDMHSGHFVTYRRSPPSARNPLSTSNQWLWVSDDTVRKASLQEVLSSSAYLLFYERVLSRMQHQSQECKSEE
Description: This panel included five proteases from the USP family, two from the UCH family, and one OTU. The IC50 values were determined in a well‐established biochemical activity assay using the fluorogenic substrate Ub‐Rho‐morpholine.^[ [33] ^] For USP18, which is unreactive to Ub but specific for ISG15, we used the ISG15CT‐Rho‐morpholine (consisting of the C‐terminal domain of ISG15) substrate to monitor its activity (see Supporting Information for preparation of this substrate).
(§1) Enzymes were pre-incubated with a concentration series of the compounds for 30 minutes at
(§2) room temperature, before addition of the substrate and direct read-out by fluorescence
(§3) intensity. Data is presented as mean ± SD, n=3.
room temperature, followed by the addition of substrate and direct read-out by fluorescence
IC50 and kinact/KI determination
(§4) The assays were performed at room temperature in “nonbinding surface flat bottom low flange”
(§5) TrisꞏHCl, 100 mM NaCl, pH 7.6, 2.0 mM cysteine, 1 mg/mL 3-[(3-cholamidopropyl)-
(§6) dimethylammonio]propanesulfonic acid (CHAPS), and 0.5 mg/mL γ-globulins from bovine
(§7) blood (BGG). […] The compounds were dissolved in 10
(§8) mM DMSO stocks, and appropriate volumes were transferred to the empty plates using a
(§9) Labcyte Echo550 acoustic dispenser. A DMSO back-fill was performed to obtain equal volumes of DMSO (400 μL) in each well. N-ethylmaleimide (NEM, 10 mM) was used a positive
(§10) steps were performed on a Biotek MultiflowFX liquid dispenser. A 10 μL portion of buffer was added and the plate was vigorously shaken for 20s. Next, 5 μL of recombinant enzyme (4x final concentration) was added followed by incubation for 1h. A 5 μL portion of the substrate
(§11) (Ub-RhoMP[2] for all DUBs, ISG15ct-RhoMP (vide supra) for USP18 and Z-FR-AMC [Bachem,
(§12) RhoMP, 10 µM for Z-FR-AMC), and the increase in fluorescence over time was recorded using
(§13) excitation 360 nm, emission 450 nm for AMC). The initial enzyme velocities were calculated
(§14) from the slopes, normalized to the positive and negative controls, and plotted against the
(§15) inhibitor concentrations using the built-in equation “[inhibitor] vs response − variable slope
(§16) (four parameters), least-squares fit” with constraints “Bottom = 0” and “Top = 100” in GraphPad
(§17) Prism 7 software to obtain the IC50 values.
(§18) All data fitting and calculations were done using GraphPad Prism 7 software.

USP7 = target: T5, USP7 (Homo sapiens, UniProt Q93009); assay: IC50 determination, fluorogenic Ub-Rho-morpholine activity assay; assay type: biochemical; conditions: after 30 min incubation; purified compound
T5 construct: (1-1102); GST (cleaved yes); made in house
T5 sequence (Q93009 whole entry): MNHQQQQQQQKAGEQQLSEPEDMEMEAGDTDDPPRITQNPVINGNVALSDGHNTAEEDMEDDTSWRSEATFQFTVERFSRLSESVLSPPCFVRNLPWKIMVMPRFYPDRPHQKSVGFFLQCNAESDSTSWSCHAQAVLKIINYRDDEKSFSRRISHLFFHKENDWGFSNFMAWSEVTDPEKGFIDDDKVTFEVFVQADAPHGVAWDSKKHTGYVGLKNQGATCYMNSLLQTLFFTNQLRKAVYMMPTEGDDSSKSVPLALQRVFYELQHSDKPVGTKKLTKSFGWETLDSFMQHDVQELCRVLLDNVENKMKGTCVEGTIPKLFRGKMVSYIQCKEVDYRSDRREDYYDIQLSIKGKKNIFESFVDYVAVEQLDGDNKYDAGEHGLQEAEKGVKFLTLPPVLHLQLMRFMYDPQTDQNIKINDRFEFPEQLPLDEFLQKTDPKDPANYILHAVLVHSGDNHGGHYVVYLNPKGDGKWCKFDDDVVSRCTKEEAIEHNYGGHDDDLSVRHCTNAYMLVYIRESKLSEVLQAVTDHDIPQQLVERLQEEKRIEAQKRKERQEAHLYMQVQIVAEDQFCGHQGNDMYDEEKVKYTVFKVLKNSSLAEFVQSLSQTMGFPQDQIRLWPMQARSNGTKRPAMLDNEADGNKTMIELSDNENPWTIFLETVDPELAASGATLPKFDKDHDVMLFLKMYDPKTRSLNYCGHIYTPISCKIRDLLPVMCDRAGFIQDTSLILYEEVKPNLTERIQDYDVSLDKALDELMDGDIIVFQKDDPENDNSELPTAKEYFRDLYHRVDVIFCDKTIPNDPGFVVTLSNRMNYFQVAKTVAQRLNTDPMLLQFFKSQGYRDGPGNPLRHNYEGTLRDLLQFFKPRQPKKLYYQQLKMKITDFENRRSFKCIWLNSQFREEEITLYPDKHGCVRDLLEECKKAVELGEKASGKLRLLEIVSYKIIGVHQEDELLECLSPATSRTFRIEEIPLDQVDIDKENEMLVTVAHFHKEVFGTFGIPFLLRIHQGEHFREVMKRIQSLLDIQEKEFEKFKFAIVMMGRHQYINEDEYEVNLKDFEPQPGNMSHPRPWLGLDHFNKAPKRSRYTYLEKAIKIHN

USP16 = USP16 (Homo sapiens, UniProt Q9Y5T5); assay: biochemical
USP16, sequence (Q9Y5T5 22-823): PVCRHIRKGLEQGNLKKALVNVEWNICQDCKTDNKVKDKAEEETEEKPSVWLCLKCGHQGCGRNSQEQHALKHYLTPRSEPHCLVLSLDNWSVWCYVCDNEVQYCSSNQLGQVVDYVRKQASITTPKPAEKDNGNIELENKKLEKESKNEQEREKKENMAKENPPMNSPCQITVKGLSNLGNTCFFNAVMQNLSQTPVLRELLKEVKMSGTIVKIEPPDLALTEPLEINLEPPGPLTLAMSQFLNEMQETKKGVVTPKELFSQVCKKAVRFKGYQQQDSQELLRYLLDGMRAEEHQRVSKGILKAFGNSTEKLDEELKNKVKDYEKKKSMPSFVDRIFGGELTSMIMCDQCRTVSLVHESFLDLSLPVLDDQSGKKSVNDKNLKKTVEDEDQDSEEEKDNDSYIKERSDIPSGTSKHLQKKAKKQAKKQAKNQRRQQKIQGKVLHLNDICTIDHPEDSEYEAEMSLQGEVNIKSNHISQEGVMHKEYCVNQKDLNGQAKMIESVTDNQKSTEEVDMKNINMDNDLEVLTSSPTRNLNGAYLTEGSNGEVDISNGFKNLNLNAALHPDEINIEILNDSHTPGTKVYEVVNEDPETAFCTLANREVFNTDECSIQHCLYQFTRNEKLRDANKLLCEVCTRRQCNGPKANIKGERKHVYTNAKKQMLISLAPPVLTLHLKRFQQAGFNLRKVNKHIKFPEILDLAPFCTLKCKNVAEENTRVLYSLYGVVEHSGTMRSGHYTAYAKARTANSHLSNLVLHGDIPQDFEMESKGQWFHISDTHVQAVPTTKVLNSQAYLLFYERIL
Description: This panel included five proteases from the USP family, two from the UCH family, and one OTU. The IC50 values were determined in a well‐established biochemical activity assay using the fluorogenic substrate Ub‐Rho‐morpholine.^[ [33] ^]
as §1, §2, §3
USP16 Full length N-terminal His-tag Q9Y5T5 In-house, [Mons, 2 nM
IC50 and kinact/KI determination
as §4, §5, §6, §7, §8, §9, §10, §11, §12, §13, §14, §15, §16, §17, §18

UCHL1 = target: T6, UCHL1 (Homo sapiens, UniProt P09936); assay: IC50 determination, fluorogenic Ub-Rho-morpholine activity assay; assay type: biochemical; conditions: for IC50: after 30 min incubation, purified compound
T6 construct: (1-223); made in house
T6 sequence (P09936 1-223): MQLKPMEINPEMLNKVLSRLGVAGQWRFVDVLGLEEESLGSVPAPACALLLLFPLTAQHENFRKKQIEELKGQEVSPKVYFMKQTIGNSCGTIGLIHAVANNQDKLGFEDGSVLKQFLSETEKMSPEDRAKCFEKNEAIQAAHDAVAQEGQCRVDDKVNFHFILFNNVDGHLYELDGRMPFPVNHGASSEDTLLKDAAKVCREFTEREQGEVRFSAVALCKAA

Flag-mUSP18 = target: T7, Flag-mUSP18 (Mus musculus, UniProt Q9WTV6); assay: Gel-based ABPP with Rho-mISG15ct-PA probe in HEK293T cells overexpressing Flag-mUSP18; assay type: cell-based, murine; conditions: live HEK293T cells, Flag-mUSP18, 4 h treatment
T7 construct: expressed in transfected cells; host or cells: HEK293T
T7 sequence (Q9WTV6 1-368): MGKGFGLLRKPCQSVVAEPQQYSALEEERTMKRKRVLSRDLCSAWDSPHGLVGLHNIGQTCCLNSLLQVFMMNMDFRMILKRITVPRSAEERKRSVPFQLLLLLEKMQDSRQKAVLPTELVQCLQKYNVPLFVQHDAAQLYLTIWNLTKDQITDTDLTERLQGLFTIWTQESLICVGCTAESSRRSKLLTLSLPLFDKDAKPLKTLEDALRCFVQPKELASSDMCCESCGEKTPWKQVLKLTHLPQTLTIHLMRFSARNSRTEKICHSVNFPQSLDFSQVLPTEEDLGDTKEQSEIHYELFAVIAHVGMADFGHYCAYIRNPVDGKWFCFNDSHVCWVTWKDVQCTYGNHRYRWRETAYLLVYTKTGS
Description: To assess the cellular target engagement and cell permeability of these inhibitors, we performed activity‐based protein profiling. […] Following washing and cell lysis, cell extracts were incubated with a Rhodamine‐tagged murine ISG15 C‐terminal domain propargylamide activity‐based probe (Rho‐mISG15ct‐PA), which covalently labels the active site cysteine of active deISGylating enzymes.^[ [41] ^] The labelled enzymes were resolved by SDS‐PAGE and imaged by in‐gel fluorescence, where inhibition of USP18 is reflected by disappearance of the USP18‐probe‐labelled bands around 55 kDa (Figures 6a, S11A). All three inhibitors engaged with cellular mUSP18 in a dose‐dependent manner, with BB07CA902 and BB07CA28 showing efficient inhibition already at 1 µM concentration. […] The in‐cell selectivity of these inhibitors for USP18 over DUBs was confirmed in a similar ABPP experiment using a Rhodamine‐tagged ubiquitin propargylamide probe (Rho‐Ub‐PA),^[ [42] ^] which labels the active site cysteine of all active cysteine DUBs.
Figure 6 Inhibition of murine USP18 activity in living cells. a) Gel‐based ABPP potency assessment using a Rho‐mISG15ct‐PA probe in HEK293T cells overexpressing Flag‐mUSP18. At 24 h following transfection, cells were incubated with DMSO or increasing concentrations of indicated inhibitors for 4 h, lysed, and treated with Rho‐mISG15ct‐PA probe. Top panel: fluorescence scan. Middle panel: anti‐Flag western blot. Bottom panel: anti‐GAPDH western blot confirms equal loading. b) Accumulation of ISGylation in mouse IFN‐β‐stimulated EL4 cells. At 24 h following mouse IFN‐β treatment, cells were incubated with DMSO or increasing concentrations of indicated inhibitors for 4 h, lysed, and treated with Rho‐mISG15ct‐PA probe. […] Middle panel: fluorescence scan. […]
Samples were then diluted 3-fold with water and analyzed by mass spectrometry by injecting 2 μL into a Waters XEVO-G2 XS Q-TOF mass spectrometer equipped with an electrospray ion source in positive mode (capillary voltage 1.2 kV, desolvation gas flow 900 L/h, T = 60 °C) with a resolution of R = 26,000. […]

[1] = tested on: cellular ISGylation in EL4 cells; assay: ISGylation accumulation in mouse IFN-β-stimulated EL4 cells (anti-mISG15 western blot); assay type: cell-based; conditions: 4 h treatment, anti-mISG15 blot
Description: Figure 6 Inhibition of murine USP18 activity in living cells. a) Gel‐based ABPP potency assessment using a Rho‐mISG15ct‐PA probe in HEK293T cells overexpressing Flag‐mUSP18. At 24 h following transfection, cells were incubated with DMSO or increasing concentrations of indicated inhibitors for 4 h, lysed, and treated with Rho‐mISG15ct‐PA probe. Top panel: fluorescence scan. Middle panel: anti‐Flag western blot. Bottom panel: anti‐GAPDH western blot confirms equal loading. b) Accumulation of ISGylation in mouse IFN‐β‐stimulated EL4 cells. At 24 h following mouse IFN‐β treatment, cells were incubated with DMSO or increasing concentrations of indicated inhibitors for 4 h, lysed, and treated with Rho‐mISG15ct‐PA probe. Top panel: anti‐mISG15 western blot. Middle panel: fluorescence scan. Bottom panel: anti‐β‐actin western blot confirms equal loading.
Ultimately, we were interested in whether USP18 inhibitor treatment could result in a relevant phenotype in cells. USP18 is the major deISGylase to remove ISG15 from target proteins, and genetic inactivation of USP18 isopeptidase activity leads to enhanced ISGylation in vivo and in cells.^[ [26] ^] We therefore examined whether the USP18 inhibitors enhance cellular ISGylation. Accordingly, EL4 cells were stimulated with IFN‐β to induce the ISG15 machinery, prior to treatment with the inhibitors. After cell lysis and SDS‐PAGE, ISGylated proteins were stained by immunoblotting with an ISG15 antibody (Figure 6b, top panel). […] To confirm inhibition of endogenous USP18 in these experiments, samples were post‐lysis treated with Rho‐mISG15ct‐PA probe.
Generation of ISGylation and in-cell inhibition assay
Mouse EL4 cells were stimulated with 300 U/mL mouse IFN-β. At 24 hours following stimulation, cells were incubated with indicated compounds at the indicated final concentrations at 37 °C for 4 hours, then washed twice with PBS and harvested for further […]
Activity-based probe labelling
The in-cell inhibition of DUBs and mUSP18 was assessed using activity-based probe labelling assays. In brief, cell pellets were resuspended in HR buffer (50 mM Tris-HCl, 5 mM MgCl 2, 250 mM sucrose, 2 mM TCEP and a Protease inhibitor tablet (Roche), pH 7.4), and lysed by sonication (Bioruptor, Diagenode, high intensity for 10 minutes with an ON/OFF cycle of 30 seconds) at 4°C. 40 μg clarified cell lysate was incubated with Rhodamine-mISG15ct-propargylamide probe[1] (final concentration 1 μM) or Rhodamine-Ubiquitin-propargylamide probe[13] (final concentration 1 μM) at 37 °C for 30 min. Reactions were stopped by the addition of LDS (lithium dodecyl sulfate) sample buffer (Invitrogen Life Technologies, Carlsbad, CA, USA) containing 2.5% β-mercaptoethanol, followed by boiling for 7 minutes.
SDS-PAGE, in-gel fluorescence scanning, and immunoblotting
Samples were resolved on precast Bis-Tris NuPAGE Gels (Invitrogen, including 4-12%, and 10% for different samples) using MOPS buffer (Invitrogen Life Technologies, Carlsbad, CA, USA). For fluorescence scan, labeled enzymes were visualized by in-gel fluorescence using a Typhoon FLA 9500 imaging system (GE Healthcare Life Sciences) (Rhodamine channel for probe, Cy5 channel for protein marker).
For immunoblotting, proteins were transferred to a nitrocellulose membrane (Protan BA85, 0.45 μm, GE Healthcare) at 300 mA for 3 hours. […]

T1 sequence (Q8NFA0 whole entry): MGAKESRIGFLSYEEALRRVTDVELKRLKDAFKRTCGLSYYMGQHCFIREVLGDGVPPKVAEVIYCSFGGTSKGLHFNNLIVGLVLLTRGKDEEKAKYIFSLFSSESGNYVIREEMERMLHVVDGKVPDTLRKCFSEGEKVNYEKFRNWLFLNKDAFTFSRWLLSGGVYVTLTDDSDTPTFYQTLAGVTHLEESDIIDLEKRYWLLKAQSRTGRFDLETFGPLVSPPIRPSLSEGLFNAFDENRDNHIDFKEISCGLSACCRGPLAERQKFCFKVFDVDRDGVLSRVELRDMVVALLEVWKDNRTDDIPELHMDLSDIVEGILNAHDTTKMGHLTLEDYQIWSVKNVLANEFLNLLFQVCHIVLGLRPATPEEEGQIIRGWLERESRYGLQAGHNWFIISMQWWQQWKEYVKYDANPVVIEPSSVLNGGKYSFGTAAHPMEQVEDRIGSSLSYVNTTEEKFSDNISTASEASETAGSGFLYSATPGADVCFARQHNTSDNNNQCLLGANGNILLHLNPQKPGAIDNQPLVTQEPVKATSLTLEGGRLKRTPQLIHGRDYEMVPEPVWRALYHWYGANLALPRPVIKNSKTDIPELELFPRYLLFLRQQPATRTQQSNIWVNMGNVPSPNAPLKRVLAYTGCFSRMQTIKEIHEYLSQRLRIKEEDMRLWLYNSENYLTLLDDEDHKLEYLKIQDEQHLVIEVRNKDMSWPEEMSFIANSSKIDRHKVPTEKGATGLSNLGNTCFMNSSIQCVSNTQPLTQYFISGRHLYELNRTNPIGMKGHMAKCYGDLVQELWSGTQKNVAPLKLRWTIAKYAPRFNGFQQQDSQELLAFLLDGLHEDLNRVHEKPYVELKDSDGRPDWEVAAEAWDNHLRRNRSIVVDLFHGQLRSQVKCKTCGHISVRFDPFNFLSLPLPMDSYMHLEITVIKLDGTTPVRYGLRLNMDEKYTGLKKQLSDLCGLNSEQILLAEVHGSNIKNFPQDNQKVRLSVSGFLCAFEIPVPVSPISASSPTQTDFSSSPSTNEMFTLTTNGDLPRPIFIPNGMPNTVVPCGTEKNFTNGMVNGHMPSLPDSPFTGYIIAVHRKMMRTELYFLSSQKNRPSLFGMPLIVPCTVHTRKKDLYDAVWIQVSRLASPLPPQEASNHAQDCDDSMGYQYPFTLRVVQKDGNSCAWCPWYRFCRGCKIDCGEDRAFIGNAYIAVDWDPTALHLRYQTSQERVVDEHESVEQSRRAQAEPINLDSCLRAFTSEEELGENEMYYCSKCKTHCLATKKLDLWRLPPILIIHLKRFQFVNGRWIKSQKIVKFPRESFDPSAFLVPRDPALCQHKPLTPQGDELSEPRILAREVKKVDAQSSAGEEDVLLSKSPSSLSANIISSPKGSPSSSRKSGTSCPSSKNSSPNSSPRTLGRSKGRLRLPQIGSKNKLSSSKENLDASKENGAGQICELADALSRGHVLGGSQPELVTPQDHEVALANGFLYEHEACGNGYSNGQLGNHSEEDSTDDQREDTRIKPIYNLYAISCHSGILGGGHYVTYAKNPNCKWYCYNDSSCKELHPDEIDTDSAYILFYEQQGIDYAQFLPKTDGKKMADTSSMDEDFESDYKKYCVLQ

Row | Compound | IC50 (USP32) | IC50 (UCHL3) | IC50 (mUSP18) | IC50 (USP30) | IC50 (USP7) | IC50 (USP16) | IC50 (UCHL1) | concentration at which inhibition of mUSP18 probe labelling is observed (Flag-mUSP18) | less potency toward USP18 and USP30 compared with UCHL1 (UCHL1; ratio of IC50 values) | effect on cellular ISGylation [1]
1 | COc1ccccc1-c1cc(C(=O)N[C@@H]2CCN(C#N)C2)n[nH]1 [Compound 2] | 0.072 µM | 168 µM | 0.029 µM | 0.059 µM | 52 µM | 22.6 µM | 110 µM |  |  | 
2 | Cc1cc(C(=O)N[C@@H]2C[C@@H]3CN(C#N)C[C@@H]3C2)ccc1C(C)C [BB06CA902] |  |  |  |  |  |  |  | 100 µM |  | hardly affected ISGylation
3 | N#CN1CC[C@@H](NC(=O)c2ccc(F)c(F)c2)C1 [Compound 4] | 184 µM | > 200 µM | 9.8 µM | 0.89 µM | 210 µM | 262 µM | > 200 µM |  |  | 

The next lines start with results.

Row | IC50 (USP32) | IC50 (UCHL3) | IC50 (mUSP18) | IC50 (USP30) | IC50 (USP7) | IC50 (USP16) | IC50 (UCHL1) | concentration at which inhibition of mUSP18 probe labelling is observed (Flag-mUSP18) | less potency toward USP18 and USP30 compared with UCHL1 (UCHL1; ratio of IC50 values) | Compound | effect on cellular ISGylation [1]
4 | 59 µM | > 200 µM | 5.5 µM | 2.4 µM | 171 µM | > 200 µM | > 200 µM |  |  | N#CN1CC[C@@H](NC(=O)c2ccc(N3CCCC3)cc2F)C1 [Compound 3] | 
5 | 242 µM | > 200 µM | 5.1 µM |  |  |  |  |  | 20–40 fold | N#CN1CC[C@H](C(=O)Nc2ncc(N3CCOCC3)s2)C1 [Compound 5] | 
